These results are taken from patent US7119073B2, “Peptides and their use as inhibitors of hepatitis C virus ns3 protease” (Istituto Di Ricerche Di Biologia Molecolare P. Angeletti SpA, priority 2001, dated 2006).

The first experiment deals with T1, NS3 protease domain complexed to a modified form of the NS4A peptide (Pep4AK) (Hepatitis C virus genotype 1b, UniProt P26663).
T1 construct: NS3 protease domain (residues 1027–1206 of the HCV polyprotein)
T1 sequence (P26663 1027-1206, other chains not shown): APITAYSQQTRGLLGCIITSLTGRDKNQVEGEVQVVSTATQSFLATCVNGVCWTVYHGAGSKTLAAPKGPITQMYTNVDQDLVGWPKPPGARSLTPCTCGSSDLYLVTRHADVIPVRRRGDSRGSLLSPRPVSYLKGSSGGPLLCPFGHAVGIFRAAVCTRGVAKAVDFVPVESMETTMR
Kind of experiment: HCV NS3 protease domain/NS4A cofactor peptide assay (Assay B). The format is biochemical. The settings on record: NS3 protease domain/NS4A cofactor peptide assay; read-out: Assay B (IC50 class).
Consider `CCOC(=O)C=Cc1cccc(CCNC(=O)C(CC(F)F)NC(=O)C(CC(C)C)NC(=O)c2ccccc2-c2ccccc2C(=O)O)c1` (stereo not shown) [Compound 719], for which the IC50 was below 100 µM.
On the same count and under the same terms, next, `CC(C)CC(NC(=O)c1ccccc1-c1ccccc1C(=O)O)C(=O)NC(CC(F)F)C(=O)NCCc1ccc(C(=O)O)cc1Cl` (stereo not shown) [Compound 715]: below 100 µM; `CC(C)CC(NC(=O)c1ccccc1-c1ccccc1C(=O)O)C(=O)NC(CS)C(=O)NCCc1ccc(Cl)cc1Cl` (stereo not shown) [Compound 717]: below 100 µM; `CC(C)CC(NC(=O)c1ccccc1-c1ccccc1C(=O)O)C(=O)NC(CC(F)F)C(=O)NCCc1cccc(NCC(=O)O)c1` (stereo not shown) [Compound 720]: below 100 µM.

The experiment is the same for the next values; noted with them: Table 1; NS3 protease domain/Pep4AK, 4AB peptide substrate; read-out: Assay B.
As to `CC(C)COC(=O)NC(C(=O)NC(CC(C)C)C(=O)NC(CS)C(=O)NCCc1ccc(C(=O)O)cc1)C(C)C` (stereo not shown) [Compound 152], the IC50 is below 10 µM.
As for `CC(C)COC(=O)N[C@@H](CCC(=O)O)C(=O)N[C@@H](CC(C)C)C(=O)N[C@@H](CS)C(=O)NC[C@H](C)c1ccccc1` [Compound 108], the IC50 is below 100 µM.
As for `COc1cc(CCNC(=O)C(CS)NC(=O)C(CC(C)C)NC(=O)C(CCC(=O)O)NC(=O)OCC(C)C)ccc1O` (stereo not shown) [Compound 175], the IC50 was below 100 µM.
As to `CC(C)COC(=O)NC(CCC(=O)O)C(=O)NC(CC(C)C)C(=O)NC(CS)C(=O)NCCc1cccnc1` (stereo not shown) [Compound 193], the IC50 is below 100 µM.
With `COC(=O)Cc1ccc(CCNC(=O)C(CS)NC(=O)C(CC(C)C)NC(=O)C(CCC(=O)O)NC(=O)OCC(C)C)cc1` (stereo not shown) [Compound 153], the IC50 is below 100 µM.
As for `CC(C)COC(=O)NC(CCC(=O)O)C(=O)NC(CC(C)C)C(=O)NC(CC(F)F)C(=O)NCCc1c(F)cc(C(=O)O)cc1F` (stereo not shown) [Compound 187], the IC50 was below 1 µM.
As to `Cc1cccc(CCNC(=O)C(CS)NC(=O)C(CC(C)C)NC(=O)C(CCC(=O)O)NC(=O)OCC(C)C)c1` (stereo not shown) [Compound 130], the IC50 was below 100 µM.
In the case of `CC(C)COC(=O)NC(CCC(=O)O)C(=O)NC(CC(C)C)C(=O)NC(CS)C(=O)NCCc1ccc(S(=O)(=O)NC(=O)c2ccccc2)cc1` (stereo not shown) [Compound 162], the IC50 was below 10 µM.
For the compound `CC(C)CC(NC(=O)C(CCC(=O)O)NC(=O)OC(C)(C)C)C(=O)NC(CC(F)F)C(=O)NCCc1ccccc1` (stereo not shown) [Compound 105], the IC50 was below 100 µM.
`CC(C)COC(=O)N[C@@H](CCC(=O)O)C(=O)N[C@@H](CC(C)C)C(=O)N[C@@H](CS)C(=O)NCC(CC(=O)O)c1ccc(Cl)cc1` (stereo partly shown) [Compound 111]: the IC50 was below 100 µM.
Same read-out and setting: next, `CC(C)COC(=O)N[C@@H](CCC(=O)O)C(=O)N[C@@H](CC(C)C)C(=O)N[C@@H](CS)C(=O)NCCc1cccc(/C=C/C(=O)O)c1` [Compound 134]: below 10 µM; `COC(=O)c1cccc(CCNC(=O)C(CS)NC(=O)C(CC(C)C)NC(=O)C(CCC(=O)O)NC(=O)OCC(C)C)c1` (stereo not shown) [Compound 132]: below 100 µM; `CC(C)COC(=O)NC(CCC(=O)O)C(=O)NC(CC(C)C)C(=O)NC(CS)C(=O)NCCc1ccc(S(N)(=O)=O)cc1` (stereo not shown) [Compound 159]: below 10 µM.
Still for that read-out and setting: next, `CC(C)COC(=O)NC(CCC(=O)O)C(=O)NC(CC(C)C)C(=O)NC(CS)C(=O)NCCc1cccc(O)c1` (stereo not shown) [Compound 129]: below 100 µM; `CC(C)COC(=O)NC(CCC(=O)O)C(=O)NC(CC(C)C)C(=O)NC(CS)C(=O)NCCc1cccs1` (stereo not shown) [Compound 191]: below 100 µM.
Turning to `CC(C)CC(NC(=O)C(CCC(=O)O)NC(=O)OCc1ccccc1)C(=O)NC(CS)C(=O)NCCc1ccccc1Cl` (stereo not shown) [Compound 116], the IC50 was below 100 µM.

The experiment is the same for the next values; noted with them: Table 2; NS3 protease domain/Pep4AK; read-out: Assay B.
Regarding `CC(C)C[C@H](NC(=O)[C@H](CCC(=O)O)NC(=O)C1CCCCC1)C(=O)N[C@@H](CS)C(=O)NCCc1ccccc1Cl` [Compound 230], the IC50 is below 100 µM.
Take `CC(C)C[C@H](NC(=O)[C@H](CCC(=O)O)NC(=O)Cc1ccccc1CC(=O)O)C(=O)N[C@@H](CS)C(=O)NCCc1ccc(Cl)cc1Cl` [Compound 225]: the IC50 is below 10 µM.
For the compound `CC(C)C[C@H](NC(=O)[C@H](CCC(=O)O)NC(=O)C1C[C@H]1c1ccccc1)C(=O)N[C@@H](CS)C(=O)NCCc1ccccc1Cl` (stereo partly shown) [Compound 219], the IC50 was below 100 µM.
For the compound `CC(C)C[C@H](NC(=O)[C@H](CCC(=O)O)NC(=O)Nc1ccccc1)C(=O)N[C@@H](CS)C(=O)NCCc1ccccc1Cl` [Compound 247], the IC50 is below 100 µM.
As for `COc1ccc(CCNC(=O)[C@H](CS)NC(=O)[C@H](CC(C)C)NC(=O)[C@H](CCC(=O)O)NS(=O)(=O)c2ccc3ccccc3c2)cc1` [Compound 255], the IC50 is below 100 µM.
Take `CC(C)C[C@H](NC(=O)[C@H](CCC(=O)O)NS(=O)(=O)c1cccs1)C(=O)N[C@@H](CS)C(=O)NCCc1ccccc1Cl` [Compound 253]: the IC50 was below 100 µM.
As to `COc1ccc(CCNC(=O)[C@H](CS)NC(=O)[C@H](CC(C)C)NC(=O)[C@H](CCC(=O)O)NC(=O)c2ccco2)cc1` [Compound 214], the IC50 was below 100 µM.
Regarding `CC(C)C[C@H](NC(=O)[C@H](CCC(=O)O)NC(=O)Cc1ccc(CC(=O)O)cc1)C(=O)N[C@@H](CS)C(=O)NCCc1ccc(Cl)cc1Cl` [Compound 227], the IC50 was below 100 µM.
Consider `CC(C)C[C@H](NC(=O)[C@H](CCC(=O)O)NC(=O)c1ccco1)C(=O)N[C@@H](CS)C(=O)NCCc1ccccc1Cl` [Compound 201], for which the IC50 is below 100 µM.
On to `COc1ccc(CCNC(=O)[C@H](CS)NC(=O)[C@H](CC(C)C)NC(=O)[C@H](CCC(=O)O)NC(=O)c2ccc3c(c2)OCO3)cc1` [Compound 204], for which the IC50 was below 100 µM.
Same read-out and setting: next, `CC(C)C[C@H](NC(=O)[C@H](CCC(=O)O)NC(=O)CCC1CCCC1)C(=O)N[C@@H](CS)C(=O)NCCc1ccccc1Cl` [Compound 235]: below 100 µM; `CC(C)C[C@H](NC(=O)[C@H](CCC(=O)O)NC(=O)CCC(=O)O)C(=O)N[C@@H](CS)C(=O)NCCc1ccccc1Cl` [Compound 239]: below 100 µM; `COc1ccc(CCNC(=O)[C@H](CS)NC(=O)[C@H](CC(C)C)NC(=O)[C@H](CCC(=O)O)NC(=O)c2ccc(C#N)cc2)cc1` [Compound 207]: below 100 µM.
On to `CC(C)C[C@H](NC(=O)[C@H](CCC(=O)O)NC(=O)c1cc2ccccc2s1)C(=O)N[C@@H](CS)C(=O)NCCc1ccccc1Cl` [Compound 212], for which the IC50 is below 100 µM.

Still in this experiment, the particulars now being: Table 4; NS3 protease domain/Pep4AK; read-out: Assay B.
`CCC[C@H](NC(=O)[C@H](CCC(=O)O)NC(=O)OCC(C)C)C(=O)N[C@@H](CS)C(=O)NCCc1ccccc1Cl` [Compound 405]: the IC50 is below 100 µM.
Take `CCCC[C@H](NC(=O)[C@H](CCC(=O)O)NC(=O)OCC(C)C)C(=O)N[C@@H](CS)C(=O)NCCc1ccccc1Cl` [Compound 407]: the IC50 was below 100 µM.
On the same count and under the same terms, for `CC(C)COC(=O)N[C@@H](CCC(=O)O)C(=O)N[C@@H](CCC(=O)OCc1ccccc1)C(=O)N[C@@H](CS)C(=O)NCCc1ccccc1Cl` [Compound 413] the value was below 100 µM; for `CC(C)COC(=O)N[C@@H](CCC(=O)O)C(=O)N(C)[C@@H](CC(C)C)C(=O)N[C@@H](CS)C(=O)NCCc1ccccc1Cl` [Compound 416], below 100 µM.
In the case of `CC(C)COC(=O)NC(CCC(=O)O)C(=O)N1CCC1C(=O)NC(CS)C(=O)NCCc1ccccc1Cl` (stereo not shown) [Compound 418], the IC50 is below 100 µM.
Turning to `CC(C)COC(=O)N[C@@H](CCC(=O)O)C(=O)N1Cc2ccccc2C[C@H]1C(=O)N[C@@H](CS)C(=O)NCCc1ccccc1Cl` [Compound 417], the IC50 was below 100 µM.
